Laboratory results published in US11098009B2, “Amidine substituted analogues and uses thereof” (Verlyx Pharma Inc., priority 2016, dated 2021).
Structures can show the parent of a compound that is named as a salt.

Columns and labels:
HCT-116 cells = experiment: HCT assay: real-time proliferation assay using xCELLigence system; format: cell-based; conditions: xCELLigence impedance
Method: The compounds were evaluated in a proliferation assay using HCT-116 cells using an xCELLigence system. Briefly, the xCELLigence system monitors cellular events in real time by measuring electrical impedance across interdigitated micro-electrodes integrated on the bottom of tissue culture E-Plates. The impedance measurement provides quantitative information about the biological status of the cells, including cell number, viability, and morphology. Real-time proliferation assays were then to determine the IC50 values. All proliferation assays start 24 hours after the transfection.

[1] = test system: GalN/LPS fulminant liver injury; experiment: GalN/LPS fulminant liver injury model, Study b (serum ALT); format: in vivo, C57BL/6 mice; conditions: for Hepatoprotection at lower doses: 10 mg/kg (4.3 and 8.6 μmole/kg) for C2, 5 and 10 mg/kg (3.3 and 6.6 μmole/kg) for C4, 5 mg/kg (6.3 mole/kg [sic]) for C5; for Hepatoprotection in the model (low ALT activity levels following GalN/LPS): FIG. 3; for ALT: GalN-LPS 700 mg/kg - 10 μg/kg, 6 hours post injury, WFI control 5989
Method: (§1) Mice were maintained under 12 h light/dark cycles with unlimited access to food and water. Study was performed in 6- to 14-week old male mice. C57BL/6 mice were used. Mice are first injected with pentamidine or Example 2 compound (IP injection). […]
(§2) All doses were administered IP to six mice (n=6), 30 minutes prior to the injection of the GalN and LPS, when applicable to the group. Blood samples were collected exactly 6 hours post GalN/LPS injections, or 6.5 hours after vehicle injections.
(§3) The tested compounds were dosed IP 30 minutes prior to the co-treatment with galactosamine (GalN) and endotoxin (Lipopolysaccharide) LPS. Mice were sacrificed at 6 hours after GalN/LPS for ALT analysis. The analysis of alanine transaminase (ALT) serum levels allows the evaluation of the hepatoprotective, anti-TNF-α, anti-inflammatory and/or anti-fibrotic activity.

[2] = test system: GalN/LPS fulminant liver injury; experiment: GalN/LPS fulminant liver injury model, Study c (serum ALT); format: in vivo, C57BL/6 mice; conditions: for ALT: GalN-LPS 700 mg/kg - 10 μg/kg, 6 hours post injury, WFI control 4403
Method: as §1, §2, §3

[3] = test system: DSS-induced acute colitis; experiment: DSS-induced acute colitis in mice (Disease Activity Index); format: in vivo, C57BL/6 ELITE mice; conditions: 2.5% DSS; 2.5 and 5 mg/kg IP q.d. D1-D6, termination D7; FIG. 5
Method: Dextran Sulfate Sodium 2.5% stocks were prepared by adding tap water in the pre-weighed powder. DSS solutions will be changed every 3 days for all groups, i.e. on Day 1 (D1) and Day 4 (D4).
Formulations for Intraperitoneal Administration: • Vehicle: sterile double distilled water (DDW) • For Pentamidine (Penta) and Compounds 2 and 4, the compounds were dissolved in DDW and dosed at 2 mL/kg to yield the indicated doses. In-Vivo Study
Male C57BL/6 ELITE mice of ˜7-8 weeks old were used. After 5-day acclimatization period in animal facility, all mice were weighed and given tap water containing 2.5% DSS on Day 1, treatment also starts on Day 1.
Animals were dosed from D1 to D6, once daily by IP injection (2 mL/kg). Animals were terminated on D7. The Disease Activity Index (DAI) scale is based on the evaluation of different parameters characterizing experimental colitis induction and progression. Body weight, presence of gross blood in the feces and stool consistency will be recorded daily.
• Weight loss: 0=none; 1=1 to 5%; 2=5 to 10%; 3=_10 to 20%; 4=>20% • Stool consistency: 0=normal; 2=loose; 4=diarrhea • Rectal bleeding: 0=normal; 2=occult bleeding; 4=gross bleeding
On Day 7, mice will be weighed and disease scores evaluated, and then euthanized by CO2 inhalation.

[4] = test system: GalN/LPS fulminant liver injury; experiment: GalN/LPS fulminant liver injury model, Study a (survival); format: in vivo, C57BL/6 mice
Method: A Galactosamine/Liposaccharide (GalN/LPS) fulminant liver injury model may be used to evaluate the anti-inflammatory, anti-TNFα and hepatoprotective properties of the compound of the description.
Mice were maintained under 12 h light/dark cycles with unlimited access to food and water. Study was performed in 6- to 14-week old male mice. C57BL/6 mice were used. Mice are first injected with pentamidine or Example 2 compound (IP injection). 30 minutes later, liver injury is induced by intraperitoneal injections of 100 μg/kg of LPS (E. coli 0111:B4) and 700 mg/kg of GalN (Sigma) dissolved in phosphate-buffered saline (PBS).
The tested compounds were be dosed IP 30-minutes prior to the co-treatment with galactosamine (GalN) and endotoxin (Lipopolysaccharide) LPS. Mice were either sacrificed at 6.5 hours after GalN/LPS for ALT analysis, or kept for longer periods to evaluate survival. The analysis of alanine transaminase (ALT) serum levels and histological observations allow the evaluation of the hepatoprotective, anti-TNF-α, anti-inflammatory and/or anti-fibrotic activity.
Survival was evaluated at two time points, i.e. 8 and 23 hours. In controls group receiving PBS prior to the GalN/LPS liver injury, no mice survived 8 hours. […] In the case of trihexamidine isethionate, all mice survived more than 23 hours with 10 mg/kg (8.6 μmole/kg) doses.

[5] = Homo sapiens, HCT-116, HCT-116 cells

IC50 (HCT-116 cells; [5]) [µM] | Molecule | Hepatoprotection at lower doses [1] | Hepatoprotection in the model (low ALT activity levels following GalN/LPS) [1] | ALT ([1]; IP dose 5 mg/kg in WFI) [IU/L] | ALT ([1]; IP dose 10 mg/kg in WFI) [IU/L] | Disease activity index [3] | further results
6.67 | N=C(N)c1ccc(OCCCCCCCCOc2cc(OCCCCCCCCOc3ccc(C(=N)N)cc3)cc(OCCCCCCCCOc3ccc(C(=N)N)cc3)c2)cc1 [Compound 3, Trioctamidine Isethionate] | – | – | – | – | – | –
– | Triamidine Formate (Chain Average Mn 1000) [Compound 5] | Significant hepatoprotection | hepatoprotective | 1072 | 689 | – | HCT-116 IC50 (HCT-116 cells; HCT-116 cells): ∞
38 | N=C(N)c1ccc(OCCCOc2cc(OCCCOc3ccc(C(=N)N)cc3)cc(OCCCOc3ccc(C(=N)N)cc3)c2)cc1 [Compound 4, Tripropamidine Formate] | Significant hepatoprotection | hepatoprotective | 731 | – | reduced the disease activity index | Hepatoprotection in the model (low ALT activity levels following GalN/LPS) ([2]; Study c, FIG. 4): dose-dependent hepatoprotection; Hepatoprotection at stated doses ([2]; Study c, 0.625 mg/kg, 1.25 mg/kg and 2.5 mg/kg IP): Significant hepatoprotection; ALT ([2]; Study c, IP dose 0.625 mg/kg in WFI): 1755 IU/L; ALT ([2]; Study c, IP dose 1.25 mg/kg in WFI): 1090 IU/L; ALT ([2]; Study c, IP dose 2.5 mg/kg in WFI): 555 IU/L
– | N=C(N)c1ccc(OCCCCCCOc2cc(OCCCCCCOc3ccc(C(=N)N)cc3)cc(OCCCCCCOc3ccc(C(=N)N)cc3)c2)cc1 [Compound 2, Trihexamidine Isethionate] | Significant hepatoprotection | hepatoprotective | 2184 | 890 | reduced the disease activity index | IC50 (HCT-116 cells; HCT-116 cells): 2.66 µM; Survival (all mice) post GalN/LPS ([4]; 10 mg/kg (8.6 μmole/kg) IP 30 min before GalN/LPS): more than 23 hours
– | N=C(N)c1ccc(OCCCCCOc2ccc(C(=N)N)cc2)cc1 [Pentamidine, pentamidine, reference compound] | – | – | – | – | – | Survival at 8 hours post GalN/LPS ([4]; 25 mg/kg IP 30 min before GalN/LPS): only the 40 mg/kg (67 μmole/kg) group benefited; Survival at 8 hours post GalN/LPS ([4]; 40 mg/kg (67 μmole/kg) IP 30 min before GalN/LPS, PBS controls: no mice survived 8 hours): benefited from hepatoprotective properties; Survival at 23 hours post GalN/LPS ([4]; 25 and 40 mg/kg IP 30 min before GalN/LPS): none survived; Hepatoprotection (positive control) ([1]; 50 mg/kg (84 μmole/kg)): benefited from hepatoprotective properties; ALT ([1]; IP dose 50 mg/kg in WFI): 306 IU/L; Hepatoprotection (positive control) ([2]; Study c text, 50 mg/kg (84 μmole/kg)): benefited from hepatoprotective properties

Molecule | IC50 (HCT-116 cells; [5]) [µM] | Hepatoprotection at lower doses [1] | Hepatoprotection in the model (low ALT activity levels following GalN/LPS) [1] | ALT ([1]; IP dose 5 mg/kg in WFI) [IU/L] | ALT ([1]; IP dose 10 mg/kg in WFI) [IU/L] | Disease activity index [3] | further results
N=C(N)c1ccc(OCCCCCCOc2cc(OCCCCCCOc3ccc(C(=N)N)cc3)cc(OCCCCCCOc3ccc(C(=N)N)cc3)c2)cc1 [Compound 1, Trihexamidine Formate] | 1.9 | – | – | – | – | – | –
